Assays:
[1] = Pharmacokinetics after IV or oral administration in mouse; format: in vivo; details: female, plasma, CD-1 mouse F
Excerpt: (§1) The pharmacokinetics of compounds of the invention were compared in mouse, rat and dog by either intravenous or oral administration in various formulations including drug powder in capsules or in combination with generally recognized as safe (GRAS) excipients. After administration in animals, blood samples were collected at the appropriate time points and plasma was obtained for bioanalysis. Compounds were extracted by protein precipitation and analyzed by LC-UV or LC-MS/MS. PK analysis was performed by noncompartmental analysis using WinNonlin. Oral bioavailability (% F) was calculated based on AUC of Compound 1.
(§2) Blood was collected into heparinized tubes that contained dithioreitol (DTT; ˜2 mg/mL) at each time point. After centrifugation plasma was transferred to a new tube that contained DMSO (Plasma:DMSO ration 2:1 for rat/mouse, 9:1 for dog).
(§3) The pharmacokinetic parameters for compounds of the invention were determined from the plasma concentration data using the Noncompartmental Analysis module in WinNonlin, version 5.0 (Pharsight Corporation).

Aqueous solubility = format: physicochemical; details: water
[2] = Pharmacokinetics after IV or oral administration in rat; format: in vivo, SD rat; details: for AUC(0-inf) / Cmax / Tmax / half-life / bioavailability: male, Sprague-Dawley, plasma
Excerpt: as §1, §2, §3

[3] = Pharmacokinetics after IV or oral administration in dog; format: in vivo; details: Beagle dog M; for AUC(0-inf) / Cmax / Tmax / half-life / bioavailability: male, plasma
Excerpt: as §1, §2, §3

[4] = IV bolus, EES (sol'n), 10 mg/kg
[5] = PO, TPGS/PEG400 (sol'n), 100 mg/kg
[6] = rat, iv, 25 mg/kg, SD rat M, IV bolus, EES (sol'n)
[7] = rat, iv, 50 mg/kg, SD rat M, IV bolus, Phospholipid
[8] = rat, iv, 80 mg/kg, SD rat M, IV bolus, HP-β-CD/saline
[9] = rat, iv, 80 mg/kg, SD rat M, IV bolus, Lyophilized HP-β-CD/saline
[10] = rat, other: PI, 80 mg/kg, SD rat M, route PI, Lyophilized HP-β-CD/saline, 80 mg/kg
[11] = rat, po, 50 mg/kg, SD rat M, 0.5% MC (suspension)
[12] = rat, po, 50 mg/kg, SD rat M, Phospholipid
[13] = rat, po, 50 mg/kg, SD rat M, TPGS/PEG400 (sol'n)
[14] = rat, po, 50 mg/kg, SD rat M, nanoparticles (colloidal dispersion)
[15] = rat, po, 80 mg/kg, SD rat M, HP-β-CD/saline
[16] = rat, PO, nanoparticles (colloidal dispersion) vs 0.5% methylcellulose suspension
[17] = beagle, dog, iv, 10 mg/kg, 1 h IV infusion, EES (sol'n)
[18] = beagle, dog, po, 50 mg/kg, TPGS/PEG400 (sol'n)
[19] = beagle, dog, po, 50 mg/kg, capsule (powder), 50 mg/kg as Compound 1 (free acid)
[20] = beagle, dog, po, 50 mg/kg, nanoparticles (colloidal dispersion)
[21] = rat, po, 50 mg/kg, SD rat M, capsule (powder), 50 mg/kg as Compound 1 (free acid)
[22] = rat, iv, 25 mg/kg, SD rat M, IV bolus, Saline
[23] = rat, po, 50 mg/kg, SD rat M, Saline
[24] = PO, capsule (powder), 50 mg/kg as Compound 1 (free acid)

Q: With `CN(NC(=O)CC(=O)NN(C)C(=S)c1ccccc1)C(=S)c1ccccc1` [Compound 1] as the molecule, how does the AUC(0-inf) [1, 4] read?
A: 3950 ng·h/mL

Q: What about the Cmax [1, 4] of the same molecule?
A: 6500 ng/mL

Q: And the Tmax [1, 4]?
A: 4.98 min

Q: What about the half-life [1, 4] of the same molecule?
A: 54 min

Q: What about the AUC(0-inf) [1, 5] of the same molecule?
A: 8640 ng·h/mL

Q: What about the Cmax [1, 5] of the same molecule?
A: 12400 ng/mL

Q: What about the Tmax [1, 5] of the same molecule?
A: 15 min

Q: And the half-life [1, 5]?
A: 60 min

Q: And the bioavailability ([1]; PO, TPGS/PEG400 (sol'n), 100 mg/kg, reference Compound 1 IV bolus)?
A: 21.9%

Q: And the solubility (Aqueous solubility)?
A: < 0.1 mg/mL

Q: And the AUC(0-inf) [2, 6]?
A: 9270 ng·h/mL

Q: And the Cmax [2, 6]?
A: 29000 ng/mL

Q: And the Tmax [2, 6]?
A: 4.98 min

Q: And the half-life [2, 6]?
A: 102 min

Q: And the AUC(0-inf) [2, 7]?
A: 29700 ng·h/mL

Q: And the Cmax [2, 7]?
A: 95300 ng/mL

Q: And the Tmax [2, 7]?
A: 4.98 min

Q: And the half-life [2, 7]?
A: 54 min

Q: And the AUC(0-inf) [2, 8]?
A: 23700 ng·h/mL

Q: What about the Cmax [2, 8] of the same molecule?
A: 58800 ng/mL

Q: What about the Tmax [2, 8] of the same molecule?
A: 4.98 min

Q: And the half-life [2, 8]?
A: 48 min

Q: What about the AUC(0-inf) [2, 9] of the same molecule?
A: 25700 ng·h/mL

Q: And the Cmax [2, 9]?
A: 63800 ng/mL

Q: What about the Tmax [2, 9] of the same molecule?
A: 4.98 min

Q: And the half-life [2, 9]?
A: 24 min

Q: And the AUC(0-inf) [2, 10]?
A: 5190 ng·h/mL

Q: What about the Cmax [2, 10] of the same molecule?
A: 2550 ng/mL

Q: What about the Tmax [2, 10] of the same molecule?
A: 15 min

Q: What about the bioavailability [2, 10] of the same molecule?
A: 21.3%

Q: And the half-life [2, 10]?
A: 138 min

Q: And the AUC(0-inf) [2, 11]?
A: 1220 ng·h/mL

Q: What about the Cmax [2, 11] of the same molecule?
A: 280 ng/mL

Q: And the Tmax [2, 11]?
A: 30 min

Q: And the half-life [2, 11]?
A: 192 min

Q: And the bioavailability ([2]; rat, po, 50 mg/kg, SD rat M, 0.5% MC (suspension), reference Compound 1 IV bolus)?
A: 6.6%

Q: What about the AUC(0-inf) [2, 12] of the same molecule?
A: 3790 ng·h/mL

Q: What about the Cmax [2, 12] of the same molecule?
A: 2050 ng/mL

Q: What about the Tmax [2, 12] of the same molecule?
A: 15 to 30 min

Q: And the bioavailability [2, 12]?
A: 8.8%

Q: And the half-life [2, 12]?
A: 54 min

Q: And the AUC(0-inf) [2, 13]?
A: 2770 ng·h/mL

Q: And the Cmax [2, 13]?
A: 1410 ng/mL

Q: And the Tmax [2, 13]?
A: 18 min

Q: What about the half-life [2, 13] of the same molecule?
A: 126 min

Q: And the bioavailability ([2]; rat, po, 50 mg/kg, SD rat M, TPGS/PEG400 (sol'n), reference Compound 1 IV bolus)?
A: 14.9%

Q: What about the AUC(0-inf) [2, 14] of the same molecule?
A: 2370 ng·h/mL

Q: And the Cmax [2, 14]?
A: 1070 ng/mL

Q: And the Tmax [2, 14]?
A: 18 min

Q: What about the half-life [2, 14] of the same molecule?
A: 186 min

Q: And the bioavailability ([2]; rat, po, 50 mg/kg, SD rat M, nanoparticles (colloidal dispersion), reference Compound 1 IV bolus)?
A: 12.8%

Q: What about the AUC(0-inf) [2, 15] of the same molecule?
A: 4330 ng·h/mL

Q: What about the Cmax [2, 15] of the same molecule?
A: 2210 ng/mL

Q: And the Tmax [2, 15]?
A: 15 to 30 min

Q: And the bioavailability [2, 15]?
A: 17.5%

Q: And the half-life [2, 15]?
A: 72 min

Q: And the “AUC after nanoparticles compared with the suspension” value [2, 16]?
A: higher

Q: And the “Cmax after nanoparticles compared with the suspension” value [2, 16]?
A: higher

Q: And the AUC(0-inf) [3, 17]?
A: 25800 ng·h/mL

Q: What about the Cmax [3, 17] of the same molecule?
A: 11600 ng/mL

Q: What about the Tmax [3, 17] of the same molecule?
A: 60 min

Q: And the half-life [3, 17]?
A: 72 min

Q: What about the AUC(0-inf) [3, 18] of the same molecule?
A: 87500 ng·h/mL

Q: What about the Cmax [3, 18] of the same molecule?
A: 38100 ng/mL

Q: What about the Tmax [3, 18] of the same molecule?
A: 24 min

Q: And the half-life [3, 18]?
A: 132 min

Q: And the bioavailability ([3]; beagle, dog, po, 50 mg/kg, TPGS/PEG400 (sol'n), reference Compound 1 IV infusion)?
A: 68%

Q: And the AUC(0-inf) [3, 19]?
A: 6520 ng·h/mL

Q: What about the Cmax [3, 19] of the same molecule?
A: 1330 ng/mL

Q: And the Tmax [3, 19]?
A: 120 min

Q: And the half-life [3, 19]?
A: 150 min

Q: What about the bioavailability ([3]; beagle, dog, po, 50 mg/kg, capsule (powder), 50 mg/kg as Compound 1 (free acid), reference Compound 1 IV infusion, based on AUC of Compound 1) of the same molecule?
A: < 5%

Q: What about the AUC(0-inf) [3, 20] of the same molecule?
A: 57500 ng·h/mL

Q: And the Cmax [3, 20]?
A: 16800 ng/mL

Q: What about the Tmax [3, 20] of the same molecule?
A: 48 min

Q: What about the half-life [3, 20] of the same molecule?
A: 288 min

Q: What about the bioavailability ([3]; beagle, dog, po, 50 mg/kg, nanoparticles (colloidal dispersion), reference Compound 1 IV infusion) of the same molecule?
A: 44.6%

Q: What does the source list for `CN(/N=C(\[O-])C/C([O-])=N/N(C)C(=S)c1ccccc1)C(=S)c1ccccc1.[Na+].[Na+]` [Compound 19]?
A: solubility (Aqueous solubility): ~50 mg/mL; % F ([2]; SD rat M, PO, capsule (powder), 50 mg/kg as Compound 1 (free acid), reference Compound 1 IV bolus, based on AUC of Compound 1, 50 mg/kg): 7.5%; AUC(0-inf) [2, 21]: 1410 ng·h/mL; Cmax [2, 21]: 640 ng/mL; Tmax [2, 21]: 36 min; half-life [2, 21]: 234 min; bioavailability ([2]; rat, po, 50 mg/kg, SD rat M, capsule (powder), 50 mg/kg as Compound 1 (free acid), reference Compound 1 IV bolus, based on AUC of Compound 1): 5.7%; % F ([3]; PO, capsule (powder), 50 mg/kg as Compound 1 (free acid), reference Compound 1 IV infusion, based on AUC of Compound 1, 50 mg/kg): 80.2%; AUC(0-inf) [3, 19]: 103000 ng·h/mL; Cmax [3, 19]: 40400 ng/mL; Tmax [3, 19]: 48 min; half-life [3, 19]: 126 min

Q: For `CN(NC(=O)CC(=O)NN(C)C(=S)c1ccccc1)C(=S)c1ccccc1` [Compound 22], which bioavailability ([2]; SD rat M, PO, Saline, 50 mg/kg) is on record?
A: 10.5%

Q: And the AUC(0-inf) [2, 22]?
A: 11600 ng·h/mL

Q: What about the Cmax [2, 22] of the same molecule?
A: 39100 ng/mL

Q: What about the half-life [2, 22] of the same molecule?
A: 222 min

Q: And the AUC(0-inf) [2, 23]?
A: 4760 ng·h/mL

Q: And the Cmax [2, 23]?
A: 2400 ng/mL

Q: And the Tmax [2, 23]?
A: 37.8 min

Q: What about the half-life [2, 23] of the same molecule?
A: 150 min

Q: With `CN(NC(=O)CC(=O)NN(C)C(=S)c1ccccc1)C(=S)c1ccccc1` [Compound 26] as the molecule, how does the AUC(0-inf) [2, 21] read?
A: 1080 ng·h/mL

Q: And the Cmax [2, 21]?
A: 250 ng/mL

Q: And the Tmax [2, 21]?
A: 54 min

Q: And the half-life [2, 21]?
A: 222 min

Q: What about the AUC(0-inf) [3, 24] of the same molecule?
A: 45600 ng·h/mL

Q: And the Cmax [3, 24]?
A: 19700 ng/mL

Q: And the Tmax [3, 24]?
A: 60 min

Q: And the half-life [3, 24]?
A: 180 min

Source: US8618170B2, “Oral formulations of bis(thiohydrazide amides)” (Synta Pharmaceuticals Corp., priority 2007, dated 2013)
